# Measured values as given in patent publication US20260013504A1, “HERBICIDAL MIXTURE, HERBICIDAL COMPOSITION, METHOD, USE, AND KITS FOR CONTROLLING UNDESIRABLE VEGETATION” (ADAMA AGAN LTD., priority 2022, published 2026).
# Key:
# Format in all cases: in vivo
# Aegilops tauschii = assay: Pot experiment, soil treatment, control of Aegilops tauschii (fresh weight, Colby); conditions: mixtures: both AIs at these rates, after 35 days
# Source text: (§1) Referring to an article of Colby, S. R. i.e., Calculation of the synergistic and antagonistic response of herbicide combinations.
# E0 is the theoretical fresh weight survival rate for the mixture of pyroxasulfone and the second herbicide selected from the group consisting of fluorochloridone, aclonifen, diflufenican and terbutryn;
# X is the measured fresh weight survival rate for pyroxasulfone used alone at the same dosage as that in the mixture;
# Y is the measured fresh weight survival rate for the second herbicide selected from the group consisting of fluorochloridone, aclonifen, diflufenican and terbutryn used alone at the same dosage as that in the mixture;
# E is the measured fresh weight survival rate for the mixture of pyroxasulfone and the second herbicide selected from the group consisting of fluorochloridone, aclonifen, diflufenican and terbutryn.
# (§2) E0-E value is calculated to evaluate the combined effect of pyroxasulfone and the second herbicide selected from the group consisting of fluorochloridone, aclonifen, diflufenican and terbutryn on the selected weeds.
# (§3) In this Example, the herbicidal activity of treatments by a mixture of pyroxasulfone and the second herbicide selected from the group consisting of fluorochloridone, aclonifen, diflufenican and terbutryn for controlling Aegilops tauschii was investigated by a pot experiment. This Example was carried out in accordance with “NY/T 1155.4-2006 Guidelines for Indoor Bioassay Tests of Pesticides, Herbicides Part 4: Activity Determination Tests, Stem and Leaf Spray Method”. • Source of the agrochemicals tested were: • Pyroxasulfone: pyroxasulfone (850g/Kg, WG) from Adama Agan LTD. • Fluorochloridone: fluorochloridone (250 g/L, EC) from Adama Agan LTD. • Aclonifen: aclonifen (600 g/L, SC) from Adama Agan LTD. • Diflufenican: diflufenican (50g/Kg, WP) from Bayer. • Terbutryn: terbutryn (50g/Kg, SC) from Zhejiang Zhongshan Chemical Industry Group Co., Ltd. • Cultivation of test materials: The test soil was formed by mixing the 20 cm layer loam on the ground surface and the culture medium in a ratio of 3:1 as cultivation soil. Weeds were cultivated in an artificial climate chamber. The daytime and nighttime temperatures were set at 22° C. and 19° C., respectively, and the illumination was set at daytime: dark time 12h: 12h.
# (§4) A certain amount of Aegilops tauschii seeds were sown in a plastic pot with a diameter of 9 cm, covering with 1-2 mm soil, and putting them in an enamel dish filled with water. The bottom infiltration method was used to water them, the agrochemicals tested in this Example were applied on the second day after sowing Aegilops tauschii seeds.
# (§5) Spraying treatment: ASS-4 automatic control spraying system with a fan-shaped nozzle was used indoors to spray the agrochemicals, the running speed was adjusted based on nozzle pressure, flow rate, etc. to spray 50 mL of liquid of agrochemicals on the actual spray area of 1.1 m2 (equivalent to 30 liters per mu), arranging the plastic pots to be processed on the spraying table evenly, and spraying evenly. The spraying pressure was 0.35 MPa, and the flow rate of the fan-shaped nozzle was 800 mL/min, spraying in order from low dosage to high dosage. Each treatment was repeated 3 times. After spraying, the plastic pots were dried for one day, placed in an artificial climate chamber, and watered regularly to keep moist.
# (§6) Weed investigation method and time: after applying the agrochemicals, the symptoms of weed damage (such as growth inhibition, chlorosis, deformity, etc.) were recorded in detail. After 35 days, the fresh weight of aerial part of the weeds in each treatment was weighed, and the measured fresh weight inhibition rate and the measured fresh weight survival rate for each treatment were calculated according to the following equations: […]
# Lolium multiflorum Lamk = assay: Pot experiment, soil treatment, control of Lolium multiflorum Lamk (fresh weight, Colby); conditions: mixtures: both AIs at these rates, after 35 days
# Protocol: as §1, §2, §3, §4, §5, §6
# Example 2 was conducted in substantially the same way as Example 1, except that Lolium multiflorum Lamk was used instead of Aegilops tauschii.
# Bromus japonicus = assay: Pot experiment, soil treatment, control of Bromus japonicus (fresh weight, Colby); conditions: mixtures: both AIs at these rates, after 35 days
# Protocol: as §1, §2, §3, §4, §5, §6
# Example 3 was conducted in substantially the same way as Example 1, except that Bromus japonicus was used instead of Aegilops tauschii.
# Galium aparine = assay: Pot experiment, soil treatment, control of Galium aparine (fresh weight, Colby)
# Protocol: as §1, §2, §3, §4, §5, §6
# Example 4 was conducted substantially the same way as Example 1, except that Galium aparine was used instead of Aegilops tauschii.
# Lithospermum arvense = assay: Pot experiment, soil treatment, control of Lithospermum arvense (fresh weight, Colby)
# Protocol: as §1, §2, §3, §4, §5, §6
# Example 5 was conducted substantially the same way as Example 1, except that Lithospermum arvense was used instead of Aegilops tauschii.
# Solanum nigrum = assay: Pot experiment (glass greenhouse), soil treatment, control of Solanum nigrum (fresh weight, Colby)
# Protocol: as §1, §2, §3, §4, §5, §6
# Example 6 was substantially conducted in the same as Example 1, except that (1) Solanum nigrum was used instead of Aegilops tauschii, (2) in “Cultivation of test materials” part, Solanum nigrum was cultivated in a glass greenhouse instead of an artificial climate chamber at a temperature of 25 to 33° C. with a natural illumination, and (3) in “Spraying treatment” part, after spraying and drying, the plastic pots were placed in a glass greenhouse instead of an artificial climate chamber.
# [1] = g ai/ha: pyroxasulfone 11.25, fluorochloridone 31.25, aclonifen 150, diflufenican 14.0625, terbutryn 140.625
# [2] = g ai/ha: pyroxasulfone 22.5, fluorochloridone 62.5, aclonifen 300, diflufenican 28.125, terbutryn 281.25
# [3] = g ai/ha: pyroxasulfone 45, fluorochloridone 125, aclonifen 600, diflufenican 56.25, terbutryn 562.5
# [4] = g ai/ha: pyroxasulfone 90, fluorochloridone 250, aclonifen 1200, diflufenican 112.5, terbutryn 1125
# [5] = g ai/ha: pyroxasulfone 180, fluorochloridone 500, aclonifen 2400, diflufenican 225, terbutryn 2250
# [6] = g ai/ha: pyroxasulfone 360, fluorochloridone 1000, aclonifen 4800, diflufenican 450, terbutryn 4500
structure (smiles),measurement,setting,value
"O=C(Nc1ccc(F)cc1F)c1cccnc1Oc1cccc(C(F)(F)F)c1 [diflufenican, N-(2,4-difluorophenyl)-2-(3-(trifluoromethyl)phenoxy)-3-pyridinecarboxamide]",Measured fresh weight inhibition rate (%),Aegilops tauschii; [1],3.7%
same,Measured fresh weight survival rate (%) - E,Aegilops tauschii; [1],96.3%
same,Measured fresh weight inhibition rate (%),Aegilops tauschii; [2],6.7%
same,Measured fresh weight survival rate (%) - E,Aegilops tauschii; [2],93.3%
same,Measured fresh weight inhibition rate (%),Aegilops tauschii; [3],4.3%
same,Measured fresh weight survival rate (%) - E,Aegilops tauschii; [3],95.7%
same,Measured fresh weight inhibition rate (%),Aegilops tauschii; [4],6.7%
same,Measured fresh weight survival rate (%) - E,Aegilops tauschii; [4],93.3%
same,Measured fresh weight inhibition rate (%),Aegilops tauschii; [5],10.4%
same,Measured fresh weight survival rate (%) - E,Aegilops tauschii; [5],89.6%
same,Measured fresh weight inhibition rate (%),Aegilops tauschii; [6],37.2%
same,Measured fresh weight survival rate (%) - E,Aegilops tauschii; [6],62.8%
same,Measured fresh weight inhibition rate (%),Lolium multiflorum Lamk; [1],87.0%
same,Measured fresh weight survival rate (%) - E,Lolium multiflorum Lamk; [1],13.0%
same,Measured fresh weight inhibition rate (%),Lolium multiflorum Lamk; [2],88.0%
same,Measured fresh weight survival rate (%) - E,Lolium multiflorum Lamk; [2],12.0%
same,Measured fresh weight inhibition rate (%),Lolium multiflorum Lamk; [3],93.2%
same,Measured fresh weight survival rate (%) - E,Lolium multiflorum Lamk; [3],6.8%
same,Measured fresh weight inhibition rate (%),Lolium multiflorum Lamk; [4],99.5%
same,Measured fresh weight survival rate (%) - E,Lolium multiflorum Lamk; [4],0.5%
same,Measured fresh weight inhibition rate (%),Lolium multiflorum Lamk; [5],100.0%
same,Measured fresh weight survival rate (%) - E,Lolium multiflorum Lamk; [5],0.0%
same,Measured fresh weight inhibition rate (%),Lolium multiflorum Lamk; [6],100.0%
same,Measured fresh weight survival rate (%) - E,Lolium multiflorum Lamk; [6],0.0%
same,Measured fresh weight inhibition rate (%),Bromus japonicus; [1],59.8%
same,Measured fresh weight survival rate (%) - E,Bromus japonicus; [1],40.2%
same,Measured fresh weight inhibition rate (%),Bromus japonicus; [2],73.2%
same,Measured fresh weight survival rate (%) - E,Bromus japonicus; [2],26.8%
same,Measured fresh weight inhibition rate (%),Bromus japonicus; [3],80.4%
same,Measured fresh weight survival rate (%) - E,Bromus japonicus; [3],19.6%
same,Measured fresh weight inhibition rate (%),Bromus japonicus; [4],95.9%
same,Measured fresh weight survival rate (%) - E,Bromus japonicus; [4],4.1%
same,Measured fresh weight inhibition rate (%),Bromus japonicus; [5],100.0%
same,Measured fresh weight survival rate (%) - E,Bromus japonicus; [5],0.0%
same,Measured fresh weight survival rate (%) - E,Galium aparine; 14.0625 g ai/ha,38.4%
same,Measured fresh weight survival rate (%) - E,Galium aparine; 28.125 g ai/ha,27.4%
same,Measured fresh weight survival rate (%) - E,Galium aparine; 56.25 g ai/ha,26.0%
same,Measured fresh weight survival rate (%) - E,Galium aparine; 112.5 g ai/ha,15.1%
same,Measured fresh weight survival rate (%) - E,Galium aparine; 225 g ai/ha,1.4%
same,inhibition at 14.0625 g/ha,"Galium aparine; Galium aparine, soil, 14.0625 g ai/ha, read-out: Measured fresh weight inhibition rate (%)",61.6%
same,inhibition at 28.125 g/ha,"Galium aparine; Galium aparine, soil, 28.125 g ai/ha, read-out: Measured fresh weight inhibition rate (%)",72.6%
same,inhibition at 56.25 g/ha,"Galium aparine; Galium aparine, soil, 56.25 g ai/ha, read-out: Measured fresh weight inhibition rate (%)",74%
same,inhibition at 112.5 g/ha,"Galium aparine; Galium aparine, soil, 112.5 g ai/ha, read-out: Measured fresh weight inhibition rate (%)",84.9%
same,inhibition at 225 g/ha,"Galium aparine; Galium aparine, soil, 225 g ai/ha, read-out: Measured fresh weight inhibition rate (%)",98.6%
same,Measured fresh weight survival rate (%) - E,Lithospermum arvense; 14.0625 g ai/ha,33.3%
same,Measured fresh weight survival rate (%) - E,Lithospermum arvense; 28.125 g ai/ha,17.4%
same,Measured fresh weight survival rate (%) - E,Lithospermum arvense; 56.25 g ai/ha,15.9%
same,Measured fresh weight survival rate (%) - E,Lithospermum arvense; 112.5 g ai/ha,1.4%
same,Measured fresh weight survival rate (%) - E,Lithospermum arvense; 225 g ai/ha,0.0%
same,inhibition at 14.0625 g/ha,"Lithospermum arvense; Buglossoides arvensis, soil, 14.0625 g ai/ha, read-out: Measured fresh weight inhibition rate (%)",66.7%
same,inhibition at 28.125 g/ha,"Lithospermum arvense; Buglossoides arvensis, soil, 28.125 g ai/ha, read-out: Measured fresh weight inhibition rate (%)",82.6%
same,inhibition at 56.25 g/ha,"Lithospermum arvense; Buglossoides arvensis, soil, 56.25 g ai/ha, read-out: Measured fresh weight inhibition rate (%)",84.1%
same,inhibition at 112.5 g/ha,"Lithospermum arvense; Buglossoides arvensis, soil, 112.5 g ai/ha, read-out: Measured fresh weight inhibition rate (%)",98.6%
same,inhibition at 225 g/ha,"Lithospermum arvense; Buglossoides arvensis, soil, 225 g ai/ha, read-out: Measured fresh weight inhibition rate (%)",100%
same,Measured fresh weight survival rate (%) - E,Solanum nigrum; 14.0625 g ai/ha,94.1%
same,Measured fresh weight survival rate (%) - E,Solanum nigrum; 28.125 g ai/ha,90.2%
same,Measured fresh weight survival rate (%) - E,Solanum nigrum; 56.25 g ai/ha,79.2%
same,Measured fresh weight survival rate (%) - E,Solanum nigrum; 112.5 g ai/ha,71.8%
same,Measured fresh weight survival rate (%) - E,Solanum nigrum; 225 g ai/ha,63.5%
same,inhibition at 14.0625 g/ha,"Solanum nigrum; Solanum nigrum, soil, 14.0625 g ai/ha, read-out: Measured fresh weight inhibition rate (%)",5.9%
same,inhibition at 28.125 g/ha,"Solanum nigrum; Solanum nigrum, soil, 28.125 g ai/ha, read-out: Measured fresh weight inhibition rate (%)",9.8%
same,inhibition at 56.25 g/ha,"Solanum nigrum; Solanum nigrum, soil, 56.25 g ai/ha, read-out: Measured fresh weight inhibition rate (%)",20.8%
same,inhibition at 112.5 g/ha,"Solanum nigrum; Solanum nigrum, soil, 112.5 g ai/ha, read-out: Measured fresh weight inhibition rate (%)",28.2%
same,inhibition at 225 g/ha,"Solanum nigrum; Solanum nigrum, soil, 225 g ai/ha, read-out: Measured fresh weight inhibition rate (%)",36.5%
